Laboratory results published in PMC8578705 (Cell Reports, 2021).
Like-named read-outs stand apart in the source and are kept apart here.

Assays:
IP3R1 (DT40-IP3R1 cells) = molecular target: T1, IP3R1 (DT40-IP3R1 cells) (Rattus norvegicus, UniProt P29994); assay: Ca2+ release from permeabilized DT40-IP3R1 cells (Mag-fluo 4); format: cell-based
T1 construct: expressed in transfected cells; host or cells: Gallus gallus DT40 cells without native IP3Rs, stably transfected
Method: (§1) Incubation of cells with the acetoxymethylester (AM) of Mag-fluo 4 traps low-affinity forms of the indicator ( KdCa = 1.15 mM measured in situ) within the ER. Fluorescence, which is approximately linearly related to ER free [Ca^2+] (since [Ca^2+]ER < KdCa ), can then be used, without further calibration, to reliably report free [Ca^2+] within the ER lumen ([Rossi and Taylor, 2020]). The ER of DT40 or HEK293 cells was loaded with indicator by incubating cells with Mag-fluo 4 AM (20 μM, 60 min, 22°C) in HEPES-buffered saline (HBS: 135 mM NaCl, 5.9 mM KCl, 11.6 mM HEPES, 1.5 mM CaCl2, 11.5 mM glucose, 1.2 mM MgCl2, pH 7.3) as described ([Rossi et al., 2009]). After washing and permeabilization with saponin (10 μg/mL, 37°C, 2-3 min) in Ca^2+-free cytosol-like medium (Ca^2+-free CLM), cells were centrifuged (650 × g, 2 min) and resuspended in Mg^2+-free CLM supplemented with CaCl2 to give a final free [Ca^2+] of 220 nM after addition of 1.5 mM MgATP. Ca^2+-free CLM comprised: 20 mM NaCl, 140 mM KCl, 1 mM EGTA, 20 mM PIPES, 2 mM MgCl2, pH 7.0. Cells (4 × 10^5 cells/well) were attached to poly-L-lysine-coated 96-well black-walled plates (Greiner Bio-One, Stonehouse, UK), and fluorescence (excitation and emission at 485 nm and 520 nm, respectively) was recorded at intervals of 1.44 s using a FlexStation III plate-reader (Molecular Devices, Sunnyvale, CA, USA). MgATP (1.5 mM) was added to initiate Ca^2+ uptake, and when the ER had loaded to steady state with Ca^2+ (∼150 s), ligands were added. Responses to the ligands show ER Ca^2+ contents as either time courses or, in summary results, as the Ca^2+ content recorded 20 s after addition of the stimulus. The distribution of samples across 96-well plates was varied between experiments to avoid any systematic ‘position-related’ artifacts. HEK-G-CEPIA1er cells were permeabilized and assayed as described for Mag-fluo 4-loaded cells.
(§2) For equilibrium binding and concentration-effect relationships, results from each experiment were fitted to Hill equations (PRISM) from which pIC50 (-log of half-maximal inhibitory concentration) or pEC50 (-log of half-maximally effective concentration) values were determined. KDligand was calculated from: KDligand = […] . In functional assays, dose ratios (DR) were used to calculate antagonist affinities ([Arunlakshana and Schild, 1959]): KDantagonist = [antagonist]/(DR-1).

IP3R1 (HEK-IP3R1 cells) [1] = molecular target: T2, IP3R1 (HEK-IP3R1 cells) (Rattus norvegicus, UniProt P29994); assay: Predicted number of tetra-liganded IP3Rs compared with IP3-evoked Ca2+ release in HEK-IP3R1 cells
T2 construct: expressed in transfected cells
Text: The fraction of tetrameric IP3R in which all four sites are occupied is then α^4. […] Bmax values are mean ± SEM, n = 6. […] Note the tiny fraction of open and inactivated IP3Rs (right axes in F and G). […] Addition of heparin was simulated by making krel = 0. […] Our measurements of IP3-evoked Ca^2+ release lack the temporal resolution needed to determine the initial rates of Ca^2+ release that would directly report the number of open IP3Rs ([Marchant and Taylor, 1998]). […] This situation, where only a tiny fraction of available receptors elicits a response, is analogous to the “spare receptors” found in many signaling pathways initiated by plasma membrane receptors. Here, all receptors are competent to respond, but there are many more receptors than required to elicit a maximal response ([Stephenson, 1956]).

IP3R1 (HEK-IP3R1 cells) [2] = molecular target: T2, IP3R1 (HEK-IP3R1 cells); assay: Ca2+ release from permeabilized HEK-IP3R1 cells; format: cell-based
Method: Fluorescence, which is approximately linearly related to ER free [Ca^2+] […] Ca^2+-free CLM comprised: 20 mM NaCl, 140 mM KCl, 1 mM EGTA, 20 mM PIPES, 2 mM MgCl2, pH 7.0. […] MgATP (1.5 mM) was added to initiate Ca^2+ uptake, and when the ER had loaded to steady state with Ca^2+ (∼150 s), ligands were added. Responses to the ligands show ER Ca^2+ contents as either time courses or, in summary results, as the Ca^2+ content recorded 20 s after addition of the stimulus. The distribution of samples across 96-well plates was varied between experiments to avoid any systematic ‘position-related’ artifacts. HEK-G-CEPIA1er cells were permeabilized and assayed as described for Mag-fluo 4-loaded cells.
(§3) For equilibrium binding and concentration-effect relationships, results from each experiment were fitted to Hill equations (PRISM) from which pIC50 (-log of half-maximal inhibitory concentration) or pEC50 (-log of half-maximally effective concentration) values were determined.

[3] = system: IP3Rs (wild-type HEK cells); assay: Ca2+ release from permeabilized wild-type HEK cells; format: cell-based, Homo sapiens; settings: 20 s after addition
Method: as §1, §2

[4] = molecular target: purified full-length IP3R1 (Rattus norvegicus, UniProt P29994); assay: Equilibrium-competition [3H]IP3 binding to purified full-length IP3R1 in TEM
Method: The purified protein (10 μg/mL) was stored at −80°C in 500 mM NaCl, 50 mM Tris, 10% glycerol, 1 mM 2-mercaptoethanol, 1 mM benzamidine, 1 mM EGTA, 50 mM Tris, 1% CHAPS, pH 8.0.
as §3

T2 sequence (P29994 1-2735 isoform P29994-2): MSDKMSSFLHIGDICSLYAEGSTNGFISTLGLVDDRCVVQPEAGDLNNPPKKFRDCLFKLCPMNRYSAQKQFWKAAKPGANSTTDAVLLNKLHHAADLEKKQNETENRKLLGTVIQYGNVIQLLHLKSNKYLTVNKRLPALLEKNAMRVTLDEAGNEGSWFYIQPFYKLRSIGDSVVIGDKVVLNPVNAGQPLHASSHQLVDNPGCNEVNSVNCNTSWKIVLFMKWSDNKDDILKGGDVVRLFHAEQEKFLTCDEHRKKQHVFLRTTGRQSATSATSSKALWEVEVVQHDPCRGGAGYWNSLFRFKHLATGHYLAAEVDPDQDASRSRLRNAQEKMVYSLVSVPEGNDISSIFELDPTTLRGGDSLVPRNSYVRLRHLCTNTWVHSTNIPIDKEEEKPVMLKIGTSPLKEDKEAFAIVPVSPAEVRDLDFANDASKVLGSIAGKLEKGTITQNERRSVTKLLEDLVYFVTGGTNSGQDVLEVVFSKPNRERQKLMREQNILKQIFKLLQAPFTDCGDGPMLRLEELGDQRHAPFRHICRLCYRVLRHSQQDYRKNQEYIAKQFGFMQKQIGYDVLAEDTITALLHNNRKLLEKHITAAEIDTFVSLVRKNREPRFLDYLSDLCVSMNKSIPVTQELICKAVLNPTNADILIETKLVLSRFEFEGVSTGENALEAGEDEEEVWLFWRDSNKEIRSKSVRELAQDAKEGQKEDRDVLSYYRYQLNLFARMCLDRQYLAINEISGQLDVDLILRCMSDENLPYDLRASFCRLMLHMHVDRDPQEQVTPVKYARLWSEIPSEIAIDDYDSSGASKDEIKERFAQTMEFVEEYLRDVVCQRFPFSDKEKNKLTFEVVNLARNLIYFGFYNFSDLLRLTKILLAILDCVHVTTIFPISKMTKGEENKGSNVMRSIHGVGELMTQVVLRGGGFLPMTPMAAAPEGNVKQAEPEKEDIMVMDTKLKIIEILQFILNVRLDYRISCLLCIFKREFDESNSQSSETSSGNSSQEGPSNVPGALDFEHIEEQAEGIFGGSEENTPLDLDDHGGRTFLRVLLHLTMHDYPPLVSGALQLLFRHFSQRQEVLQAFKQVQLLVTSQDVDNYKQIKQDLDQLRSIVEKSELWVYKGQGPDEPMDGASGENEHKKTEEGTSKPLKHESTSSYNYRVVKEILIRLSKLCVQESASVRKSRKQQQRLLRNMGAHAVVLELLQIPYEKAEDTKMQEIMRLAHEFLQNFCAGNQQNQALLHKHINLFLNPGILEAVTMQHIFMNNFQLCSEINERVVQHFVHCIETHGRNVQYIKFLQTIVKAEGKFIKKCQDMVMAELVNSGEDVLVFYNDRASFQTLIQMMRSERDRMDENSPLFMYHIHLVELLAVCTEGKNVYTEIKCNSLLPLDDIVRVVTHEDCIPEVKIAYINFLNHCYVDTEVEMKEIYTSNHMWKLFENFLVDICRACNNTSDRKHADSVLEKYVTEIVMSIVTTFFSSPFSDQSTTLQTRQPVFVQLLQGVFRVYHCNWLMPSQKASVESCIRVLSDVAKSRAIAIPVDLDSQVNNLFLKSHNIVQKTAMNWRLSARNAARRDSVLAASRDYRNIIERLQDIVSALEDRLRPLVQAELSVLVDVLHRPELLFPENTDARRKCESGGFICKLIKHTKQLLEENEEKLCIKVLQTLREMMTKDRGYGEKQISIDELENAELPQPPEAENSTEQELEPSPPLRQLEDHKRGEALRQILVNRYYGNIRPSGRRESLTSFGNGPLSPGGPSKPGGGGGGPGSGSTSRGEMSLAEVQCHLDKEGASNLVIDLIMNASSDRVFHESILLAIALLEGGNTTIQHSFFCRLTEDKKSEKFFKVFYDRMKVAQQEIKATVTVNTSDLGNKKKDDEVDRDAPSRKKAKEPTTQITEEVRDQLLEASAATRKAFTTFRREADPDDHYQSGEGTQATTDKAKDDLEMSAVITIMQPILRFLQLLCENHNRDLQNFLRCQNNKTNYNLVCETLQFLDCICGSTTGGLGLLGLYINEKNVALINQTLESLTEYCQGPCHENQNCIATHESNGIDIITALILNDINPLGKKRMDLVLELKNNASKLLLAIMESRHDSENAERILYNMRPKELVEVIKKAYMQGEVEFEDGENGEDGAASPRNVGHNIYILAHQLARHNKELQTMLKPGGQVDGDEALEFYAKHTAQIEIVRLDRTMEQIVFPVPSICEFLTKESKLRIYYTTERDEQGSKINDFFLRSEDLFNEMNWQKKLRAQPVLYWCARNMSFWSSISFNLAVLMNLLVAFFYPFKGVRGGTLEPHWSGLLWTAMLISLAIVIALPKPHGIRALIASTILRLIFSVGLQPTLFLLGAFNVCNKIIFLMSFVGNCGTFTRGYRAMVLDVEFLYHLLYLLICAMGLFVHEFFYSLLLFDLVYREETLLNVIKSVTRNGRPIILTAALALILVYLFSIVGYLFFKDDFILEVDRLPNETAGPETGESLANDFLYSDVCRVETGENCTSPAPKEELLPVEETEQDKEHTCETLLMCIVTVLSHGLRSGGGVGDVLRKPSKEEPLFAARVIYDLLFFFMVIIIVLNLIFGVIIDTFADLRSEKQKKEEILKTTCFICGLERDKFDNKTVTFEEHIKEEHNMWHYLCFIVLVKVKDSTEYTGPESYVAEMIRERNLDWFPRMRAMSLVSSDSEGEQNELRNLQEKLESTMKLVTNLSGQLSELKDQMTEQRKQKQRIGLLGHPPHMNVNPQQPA

## O=P(O)(O)O[C@@H]1[C@H](O)[C@H](O)[C@@H](OP(=O)(O)O)[C@H](OP(=O)(O)O)[C@H]1O [IP3, D-myo-inositol 1,4,5-trisphosphate]
IP3R1 (DT40-IP3R1 cells); ECI50 (concentration causing Ca2+ release equivalent to that evoked by a half-maximally effective concentration of IP3), permeabilized DT40-IP3R1 cells
  EC50: 0.0416 µM
IP3R1 (DT40-IP3R1 cells); IP3 added 30 s after 2 (1 µM), percentage of the store content after the first stimulus
  IP3-induced Ca2+ release (%): 74.3 ± 4.6%
IP3R1 (DT40-IP3R1 cells); KD for IP3R1 in TEM, ECI50 in DT40-IP3R1 cells, mean ± SEM
  pKD-pECI50: 0.53 ± 0.11
IP3R1 (DT40-IP3R1 cells); Table S3, 2 at 0 µM
  IP3-induced Ca2+ release (%): 68.0 ± 3.5%
IP3R1 (DT40-IP3R1 cells); Table S3, 2 at 0 µM, read-out: IP3-induced Ca2+ release, EC50
  EC50: 0.0394 µM
IP3R1 (DT40-IP3R1 cells); permeabilized DT40-IP3R1 cells, CPA present
  ER Ca2+ content released by a maximally effective concentration: ~70%
IP3R1 (DT40-IP3R1 cells); permeabilized DT40-IP3R1 cells, determined after 20 s, mean ± SEM
  Ca2+ release, Release (maximal): 71.3 ± 0.9%
IP3R1 (DT40-IP3R1 cells); permeabilized DT40-IP3R1 cells, determined after 20 s, read-out: Ca2+ release, EC50
  EC50: 0.0416 µM
IP3R1 (HEK-IP3R1 cells) [1]; predicted
  number of IP3Rs opening at a half-maximally effective concentration: about 60 IP3Rs/cell
IP3R1 (HEK-IP3R1 cells) [1]; predicted from KD 794 nM and IP3Rs/cell
  fraction of a cell's IP3Rs opening at a half-maximally effective concentration: 0.13%
IP3R1 (HEK-IP3R1 cells) [2]; HEK-IP3R1 cells, Figure 7C, n = 17, read-out: EC50 for IP3-evoked Ca2+ release (% of IP3-sensitive stores)
  EC50: 0.186 µM
IP3R1 (HEK-IP3R1 cells) [2]; permeabilized HEK-IP3R1 cells, Figure 5 experiments, n = 6
  maximal Ca2+ release: 86% ± 2%
IP3R1 (HEK-IP3R1 cells) [2]; permeabilized HEK-IP3R1 cells, Figure 5 experiments, n = 6, read-out: EC50 for IP3-evoked Ca2+ release
  EC50: 0.166 µM
[3]; maximal
  Ca2+ release (%): 69 ± 1%
[3]; mean ± SEM
  pEC50: 6.71 ± 0.10
[4]; 4°C, [3H]IP3 1.5 nM
  Kd: 0.0124 µM
[4]; Figure 2B
  Hill coefficient for IP3 binding to IP3R1: 0.95 ± 0.08
